Consider five compounds from patent publication US20250241917A1, “SMALL MOLECULE ENHANCERS OF ANTISENSE OLIGO ACTIVITY” (Oregon State University, priority 2022, published 2025).

In one data set the test system is HeLa pLuc/705 cells. Nature of the data set: HeLa pLuc/705 assay (luciferase splice-correction readout of ASO activity with enhancer co-treatment). Conditions: for increase in 2′-MOE PS activity: 2′-MOE PS fixed at 2.5 μM; for increase in 2′-OMe PS activity: 2′-OMe PS fixed at 5 μM; for increase in PPMO activity: PPMO fixed at 5 μM; for enhancer concentration range that significantly enhances ASO activity on co-treatment of cells: cell culture co-treatment with ASO or macromolecule; for enhancing performance in screen of Selleck Chemicals FDA-approved drug library: primary screen 10 μM, secondary screen 0.1-20 μM; for enhancement of unmodified PMO activity: varied PMO concentration, enhancer fixed (febuxostat 2.5 μM; lonafarnib 250 nM), manual format (96 wells). The format is cell-based. The text has this: The Hela pLuc/705 assay provides a positive readout of ASO's splice-modifying activity. Because messenger RNA (mRNA) splicing occurs in the cell's nucleus, the assay's output is indicative of the effectiveness of delivery of splice-modifying oligomers into the nucleus, which necessarily implies effective cytosolic delivery. The assay utilizes a genetically modified HeLa cell line that has been stably transfected with a gene containing coding sequence for a reporter enzyme (luciferase) and a mutated intron inserted within the coding sequence. The mutated intron cannot be properly excised resulting in an in-frame stop codon in the luciferase coding sequence, which prevents expression of functional luciferase. Two conditions must be met to produce the functional enzyme. First, an ASO must enter the cell nucleus to block the mutated splice site, thus restoring normal splicing and read through of the reporter message. The result is mRNA encoding functional reporter protein. Second, but equally important, the cells must be viable to carry out RNA processing and translation so that reporter protein activity is produced.
Correction through successful nuclear delivery of a splice-modifying ASO restores luciferase expression, which is then quantified by measurement of cell lysate luminescence with addition of luciferin substrate. This assay is a standard measure of intracellular ASO delivery within the field.
The HeLa pLuc/705 assay was miniaturized in order to allow it to be performed in […] cell culture plates, enabling the assay to be adapted to the high-throughput screening setting. The aim was to screen small molecules, with an emphasis on FDA-approved drugs, for ability to enhance ASO splice-modifying activity, which would be indicated by an increase in luminescence relative to cells treated with the ASO alone. In order to validate the approach, a positive control molecule was utilized which was already known to increase ASO activity when used alongside the ASO. Initially, a peptide intended for use in cell culture was used. Subsequently, febuxostat was used as a positive control.
The first screened compounds were the compounds in the Selleck Chemicals FDA-approved drug library for enhancing activity. This library contains 1430 compounds. Library compounds were dispensed to 10 μM in the plate wells. […] These sixteen compounds were evaluated for enhancing performance over the concentration range 0.1-20 μM. This enabled validation of the primary screening results, as well as to evaluate relative performance of hits through observation of concentration-dependent activity. Hits were evaluated based on relative enhancing performance, and they were also qualitatively evaluated for suitability for future therapeutic use, considering the identity, indication and approval status of the compound.
HeLa pLuc/705 cells were seeded into 384-well plates ([…] well volume) and incubated for 24 hours. At 24 hours, DMSO solutions of OAEs were added to subconfluent cells using an HP D300 Digital Dispenser, followed by addition of a testing ASO or DMSO. Cells were incubated for 24 hours. At 24 hours treatment time, growth medium was removed from the cells and […] of a lysis buffer/luciferin solution was added to each well. Luminescence was measured using a BioTek plate reader 5 minutes following addition of the lysis buffer/luciferin solution. Background luminescence values (generated using OAE only/DMSO-matched controls) were subtracted from experimental values. These methods apply to the commonly employed format for the assay using the HP D300 Digital Dispenser, with slight variations used for the high-throughput and manual formats.

For data set [1] the following is noted: mice, intraperitoneal administration at 10 mg/kg; cited from earlier work.
The conditions of data set [2]: degrades to tizoxanide; cited from earlier work.
The conditions of data set [3]: in vivo, po; cited from earlier work.
[4] abbreviates: varied ASO concentration, enhancer fixed (resveratrol 10 μM).

On to `Nc1nc2ccc(Cl)cc2c2nc(-c3ccco3)nn12` [CGS-15943], for which, in the data set with HeLa pLuc/705 cells (enhancer at 10 μM), the “increase in 2′-MOE PS activity” value was 2.6 fold, the “increase in 2′-OMe PS activity” value came to 3.2 fold and the “increase in PPMO activity” value is reported as 4 fold. For the same compound, the “enhancement of PPMO activity in screen of NIH Clinical Collection” value in the data set with HeLa pLuc/705 cells (PPMO) was “significant enhancement”. Further, the “enhancer concentration range that significantly enhances ASO activity on co-treatment of cells” value in the data set on HeLa pLuc/705 cells lay in the range of 0.25 to 20 µM. Further, the adverse effects result in data set [1] is listed as “no reported adverse effects”.

Take `Cc1nc(-c2ccc(OCC(C)C)c(C#N)c2)sc1C(=O)O` [febuxostat]: the “increase in 2′-MOE PS activity” value in the data set on HeLa pLuc/705 cells (enhancer at 5 μM) was 3 fold. In the data set on HeLa pLuc/705 cells (enhancer at 10 μM), the “increase in 2′-OMe PS activity” value is reported as 6.4 fold and the “increase in PPMO activity” value is listed as 7.9 fold. In the data set with HeLa pLuc/705 cells (PPMO), the “result in screen of MicroSource Discovery Spectrum library” value is “strong hit” and the “enhancing performance in screen of Selleck Chemicals FDA-approved drug library” value (shortened to “enhancing performance in screen”) was “strong performers”. In the data set on HeLa pLuc/705 cells, the “enhancer concentration range that significantly enhances ASO activity on co-treatment of cells” value lay in the range of 0.25 to 20 µM and the “enhancement of unmodified PMO activity” value was “found to enhance the activity”.

Consider `NC(=O)N1CCC(CC(=O)N2CCC([C@H]3c4ncc(Br)cc4CCc4cc(Cl)cc(Br)c43)CC2)CC1` [lonafarnib], for which, in the data set with HeLa pLuc/705 cells (enhancer at 250 nM), the “increase in 2′-MOE PS activity” value stood at 2.1 fold, the “increase in 2′-OMe PS activity” value was 3 fold and the “increase in PPMO activity” value is 2.6 fold. In the data set on HeLa pLuc/705 cells (PPMO), the “enhancing performance in screen” value is on record as “strong performers”. In addition, in the data set with HeLa pLuc/705 cells, the “enhancer concentration range that significantly enhances ASO activity on co-treatment of cells” value lay within 0.1 to 20 µM and the “enhancement of unmodified PMO activity” value is on record as “found to enhance the activity”.

Regarding `CC(=O)Oc1ccccc1C(=O)Nc1ncc([N+](=O)[O-])s1` [nitazoxanide], in the data set on HeLa pLuc/705 cells (PPMO), the “enhancement of PPMO activity in screen of NIH Clinical Collection” value is recorded as “significant enhancement”. Besides, the “enhancer concentration range that significantly enhances ASO activity on co-treatment of cells” value in the data set on HeLa pLuc/705 cells fell in the range of 5 to 20 µM. Moreover, the “degradation in human plasma” value in data set [2] is given as “degrade very rapidly”.

As for `Oc1ccc(/C=C/c2cc(O)cc(O)c2)cc1` [resveratrol], in the data set on HeLa pLuc/705 cells (enhancer at 10 μM), the “increase in 2′-OMe PS activity” value amounted to 1.5 fold and the “increase in PPMO activity” value was found to be 2.1 fold. Moreover, in the data set on HeLa pLuc/705 cells (PPMO), the “enhancing performance in screen” value is on record as “found to be an OAE”. In the data set with HeLa pLuc/705 cells, the “enhancer concentration range that significantly enhances ASO activity on co-treatment of cells” value is 1 to 20 µM. Also, the “enhancement of 2′-MOE PS activity” value with HeLa pLuc/705 cells (fixed ASO concentration, varied enhancer concentration) is “did not show enhancement”. Moreover, in the data set on HeLa pLuc/705 cells (setting [4]), the “enhancement of 2′-MOE PS ASO activity” value is “did show enhancement” and the “enhancement of 2′-OMe PS ASO activity” value is “failed to enhance activity”. For the same compound, in data set [3], the maximum plasma concentration was 2.4 µM.
